Assay results from patent publication US10035806B2, “Derivatized corroles and metallocorroles and their use as imaging and therapeutic agents” (CALIFORNIA INSTITUTE OF TECHNOLOGY, priority 2015, dated 2018).
Marks after values point to notes of the source that are not given here.

Experiments:
DU-145 = assay: MTS assay (cytotoxicity); assay type: cell-based, human; conditions: DU-145 (prostate), 72 h exposure in the dark, MTS assay, mean of three experiments
From the text: (§1) Reagents were obtained from the indicated suppliers: HBSS without phenol red and trypsin-EDTA (0.25%), Invitrogen/Gibco; PBS, Mediatech; 4′,6-diamidino-2-phenylindole dihydrochloride (DAPI) and DMSO, Sigma-Aldrich; paraformaldehyde, Electron Microscopy Sciences; WGA, Alexa Fluor 488 conjugate, Invitrogen/Molecular Probes; and ProLong Gold Antifade Mountant with DAPI, Life Technologies. Human Cancer Cell Lines. Four cell lines from the NCI60 cell panel (Shoemaker RH (2006) The NCI60 human tumour cell line anticancer drug screen. Nat Rev Cancer 6(10):813-823) representing four distinct tumor types were used in this study: DU-145, prostate; MDA-MB-231, breast; SK-MEL-28, melanoma; and OVCAR-3, ovarian. Cells were grown in RPMI 1640 cell culture medium (Mediatech) containing 2 mM L-glutamine, supplemented with 10% FBS (Omega Scientific), and maintained at 37° C. under 5% CO2 in a humidified incubator.
(§2) At the time of drug treatment, stock solutions of 1-4 were diluted to 10-fold the desired final test concentrations with RPMI medium 1640. Aliquots of […] of these diluted solutions were added to the appropriate microtiter wells containing 90 μL of medium, resulting in the required final drug concentrations (eight concentrations per compound, ranging from 0.3 to 600 μM). The final concentration of DMSO in test culture was <1%. […] Following 72 h of exposure at 37° C., cell viability was determined using the MTS assay (CellTiter 96 Aqueous One Cell Proliferation Assay; Promega) according to the manufacturer's instructions. Absorbances were measured using a microplate reader (Synergy 4; Biotek Instruments) at 490 nm. Experiments were performed in triplicate and each dose-response curve represents the mean of three or more independent experiments. Spectrophotometric data were analyzed by sigmoid dose-response, nonlinear regression analysis; the IC50, Emax values, and associated SE were calculated using GraphPad Prism 6 (GraphPad Software).
(§3) The effects of bis-sulfonate, carboxylate, and aminocaproate ring substituents on gallium corrole cytotoxicities were examined using four human cancer cell lines, representing tumors of different origin selected based on previously described sensitivities.

MDA-MB-231 = assay: MTS assay (cytotoxicity); assay type: cell-based, human; conditions: MDA-MB-231 (breast), 72 h exposure in the dark, mean of three experiments
From the text: as §1, §2, §3

OVCAR-3 = assay: MTS assay (cytotoxicity); assay type: cell-based, human; conditions: OVCAR-3 (ovarian), 72 h exposure in the dark, mean of three experiments
From the text: as §1, §2, §3

SK-MEL-28 [1] = assay: MTS assay (cytotoxicity); assay type: cell-based, human; conditions: SK-MEL-28 (melanoma), 72 h exposure in the dark, mean of three experiments
From the text: as §1, §2, §3

solubility in water = assay type: physicochemical
[2] = system: 60 human tumor cell lines (NCI60); assay: NCI60 anticancer drug screen, whole panel; assay type: cell-based; conditions: 10 μM, 48 h
From the text: (§4) The aminocaproate-substituted corrole Complex 3 was submitted to NCI for cytotoxic screening at a single high dose (10−5M) in a panel of 60 human tumor cell lines (NCI60). Details of the cytotoxicity assessment in the NCI anticancer drug screen have been described previously, in Monks A, et al. (1991) Feasibility of a high-flux anticancer drug screen using a diverse panel of cultured human tumor cell lines. J Natl Cancer Inst 83(11):757-766, this reference being incorporated by reference for these teachings.
In view of the promising results observed for carboxylated corroles, Complex 3 was selected for expanded cell screening to uncover additional susceptible cancer cell lines. The cytotoxic activity of Complex 3 was tested at a dose of 10^−5 M against 60 human cancer cell lines representing nine distinct tumor types in the anticancer screening program of the National Cancer Institute (NCI). The in vitro parameters for cytotoxicity, growth percent, and lethality were obtained for Complex 3 and reported as a mean graph of the percent growth of treated cells (FIG. 7). Bars in the mean graph depict the deviation of individual tumor cell lines from the overall mean value for all cells tested. Bars that project to the right of the mean represent cell lines that are more sensitive to Complex 3, whereas cell lines less sensitive to the compound display bars that project to the left. […]

A549/ATCC = assay: NCI60 anticancer drug screen; assay type: cell-based, human; conditions: A549/ATCC (Non-small-cell lung cancer), 10 μM, 48 h
From the text: as §4
(§5) In view of the promising results observed for carboxylated corroles, Complex 3 was selected for expanded cell screening to uncover additional susceptible cancer cell lines. The cytotoxic activity of Complex 3 was tested at a dose of 10^−5 M against 60 human cancer cell lines representing nine distinct tumor types in the anticancer screening program of the National Cancer Institute (NCI). The in vitro parameters for cytotoxicity, growth percent, and lethality were obtained for Complex 3 and reported as a mean graph of the percent growth of treated cells (FIG. 7). Bars in the mean graph depict the deviation of individual tumor cell lines from the overall mean value for all cells tested. Bars that project to the right of the mean represent cell lines that are more sensitive to Complex 3, whereas cell lines less sensitive to the compound display bars that project to the left.
(§6) The numerical values associated with this assay represent growth relative to the no-drug control and the numbers of cells at time 0 (FIG. 7). This allows detection of both growth inhibition (values between 0 and 100) and lethality (values less than 0). For example, a value of 100 signifies no growth inhibition, 40 means 60% growth inhibition, 0 means no net growth over the course of the experiment, −40 means 40% lethality, and −100 indicates all cells are dead. […] Growth inhibitions reflect cytostatic activity of the compound as previously shown for Complex 2. In contrast, cell lethality is only evident in melanoma cells, specifically the LOX IMVI and SK-MEL-28 cell lines.

HL-60 (TB) = assay: NCI60 anticancer drug screen; assay type: cell-based, human; conditions: HL-60 (TB) (Leukemia), 10 μM, 48 h
From the text: as §4, §5, §6

KM12 = assay: NCI60 anticancer drug screen; assay type: cell-based, human; conditions: KM12 (Colon cancer), 10 μM, 48 h
From the text: as §4, §5, §6

MCF7 = assay: NCI60 anticancer drug screen; assay type: cell-based, human; conditions: MCF7 (Breast Cancer), 10 μM, 48 h
From the text: as §4, §5, §6

MDA-MB-468 = assay: NCI60 anticancer drug screen; assay type: cell-based, human; conditions: MDA-MB-468 (Breast Cancer), 10 μM, 48 h
From the text: as §4, §5, §6

NCI-H322M = assay: NCI60 anticancer drug screen; assay type: cell-based, human; conditions: NCI-H322M (Non-small-cell lung cancer), 10 μM, 48 h
From the text: as §4, §5, §6

RXF 398 = assay: NCI60 anticancer drug screen; assay type: cell-based, human; conditions: RXF 398 (Renal Cancer), 10 μM, 48 h
From the text: as §4, §5, §6

SK-MEL-5 = assay: NCI60 anticancer drug screen; assay type: cell-based, human; conditions: SK-MEL-5 (Melanoma), 10 μM, 48 h
From the text: as §4, §5, §6

SR = assay: NCI60 anticancer drug screen; assay type: cell-based, human; conditions: SR (Leukemia), 10 μM, 48 h
From the text: as §4, §5, §6

U251 = assay: NCI60 anticancer drug screen; assay type: cell-based, human; conditions: U251 (CNS Cancer), 10 μM, 48 h
From the text: as §4, §5, §6

SK-MEL-28 [3] = assay: NCI60 anticancer drug screen; assay type: cell-based, human; conditions: SK-MEL-28 (Melanoma), 10 μM, 48 h; lethality rather than inhibition

O=C(O)CCCCCNc1c(F)c(F)c(C2=C3C=CC4=[N+]3[Ga-]35[n]6c2ccc6C(c2c(F)c(F)c(F)c(F)c2F)=c2ccc([n]23)=C(c2c(F)c(F)c(F)c(F)c2F)c2ccc4[n]25)c(F)c1F (stereo not drawn) [Complex 3]
IC50 (DU-145): 17.6 µM | IC50 (MDA-MB-231): 13.7 µM | IC50 (OVCAR-3): 12.7 µM | IC50 (SK-MEL-28 [1]): 14.4 µM | solubility in water (solubility in water): easily solubilized in water | activity against all NCI60 cell lines derived from nine tumor types [2]: highly active | average growth inhibition ([2]; NCI60 panel): 70% | Growth inhibition, % (A549/ATCC): 82.7% | Growth inhibition, % (HL-60 (TB)): 86.1% | Growth inhibition, % (KM12): 80.6% | Growth inhibition, % (MCF7): 63.1% | Growth inhibition, % (MDA-MB-468): 86.3% | Growth inhibition, % (NCI-H322M): 32.9% | Growth inhibition, % (RXF 398): 96.7% | Growth inhibition, % (SK-MEL-5): 72.0% | Growth inhibition, % (SR): 87.5% | Growth inhibition, % (U251): 77.4% | % lethality (SK-MEL-28 [3]): 12.1** %
